The values that follow come from patent publication US20200071310A1, “N-ARYL PYRAZOLES AS NRF2 REGULATORS” (GLAXOSMITHKLINE INTELLECTUAL PROPERTY DEVELOPMENT LIMITED, priority 2016, published 2020).

Where a name gives a salt, the structure may show the parent alone.

This assay addresses T1, full length Keap1 protein / full length NRF2 protein (Homo sapiens, UniProt Q14145).
T1 construct: full length NRF2 protein and full length Keap1 protein (Keap1 exists a dimer) are used; His
As to the kind of experiment: NRF2-Keap1 TR-FRET Low Protein Assay. Type of assay: binding. An excerpt: In the NRF2-Keap1 TR-FRET (time-resolved fluorescence resonance energy transfer) low protein assay, full length NRF2 protein and full length Keap1 protein (Keap1 exists a dimer) are used. The assay detects a compound's ability to displace the binding of Keap1 FlagHis with biotinylated Avi-NRF2 protein. Biotin-NRF2 binds to streptavidin-europium (a component of the detection mix) and Keap1 FlagHis is recognized by anti-Flag APC (allophycocyanin) antibody (also a component of the detection mix). If binding occurs between the two proteins, there will be an energy transfer from the Eu+3 (donor) at 615 nm to the APC (acceptor) at 665 nm. A potential NRF2 inhibitor will cause a reduction in the TR-FRET signal by interfering with the binding of Keap1 to NRF2.
Ten nanoliters of 100× compound dose response curves (serial 3-fold dilutions) in DMSO were stamped using an Echo liquid handling system (Labcyte) into 384-well, low volume, black assay plates (Greiner, #784076), with DMSO in columns 6 and 18. An additional 90 nl DMSO was added to each well, to bring the total volume to 100 nl per well. The top concentration of compound was located in columns 1 and 13, with the serial dilutions going across the row. All reagents were diluted in assay buffer (50 mM Tris, pH 8.0, 5 mM MgCl2, 100 mM NaCl, 0.005% BSA, 1 mM DTT, and 2 mM CHAPS. The BSA, DTT, and CHAPS were added to the assay buffer on the day of assay. Using a Multidrop Combi (Thermo Electron Corporation) equipped with a metal tip dispenser, 5 ul of 1.25 nM Keap1 FlagHis protein was added to all wells of the compound plate, with the exception of the wells in column 18. Wells in column 18 received 5 ul of assay buffer instead. Plates were centrifuged at 500 rpm for 1 minute, covered with a plate lid, and incubated at 37° C. for 2.25 hours. Plates were then removed from the incubator and allowed to cool to RT for 15 minutes. Five microliters of 2.5 nM biotin-NRF2 protein was then added to all wells of the plates and the plates were spun at 500 rpm for 1 minute, followed by incubating at 4° C. for 1.25 hours. The plates were then allowed to warm to RT for 15 minutes, followed by the addition of 10 ul of detection mix (1 nM Streptavidin Eu+W1024 and 5 ug/ml mouse anti-DYKDDDDK IgG conjugated to SureLight APC antibody; both from Columbia Biosciences) to all wells. Plates were spun at 500 rpm for 1 minute, incubated for 1 hour at RT, and read on an Envision plate reader using a 320 nm excitation filter and 615 nm and 665 nm emission filters. Compound response (% inhibition) and potency (pIC50) were calculated based on the ratio of the two emissions (665 nm/615 nm) and then the transformed data was normalized against controls in the assay (control 1=1% DMSO in the presence of NRF2 and Keap1 protein and control 2=1% DMSO in the presence of only the NRF2 protein). Data analysis was handled using the software package Abase XE (Surrey, United Kingdom). The % inhibition values were calculated from the ratio (transformed) data by the equation:
100−(100*(compound response−average control 2)/(average control 1−average control2)).
For calculation of pIC50s, Abase XE used a four parameter equation.
IC50s<10 nM (+++++), IC50s 10-100 nM (++++), IC50s 100 nM-1 uM (+++), IC50s 1-10 uM (++). and IC50s 10 uM-100 uM (+), IC50s>100 uM (−), or were not determined (ND).

T1 sequence (Q14145 whole entry): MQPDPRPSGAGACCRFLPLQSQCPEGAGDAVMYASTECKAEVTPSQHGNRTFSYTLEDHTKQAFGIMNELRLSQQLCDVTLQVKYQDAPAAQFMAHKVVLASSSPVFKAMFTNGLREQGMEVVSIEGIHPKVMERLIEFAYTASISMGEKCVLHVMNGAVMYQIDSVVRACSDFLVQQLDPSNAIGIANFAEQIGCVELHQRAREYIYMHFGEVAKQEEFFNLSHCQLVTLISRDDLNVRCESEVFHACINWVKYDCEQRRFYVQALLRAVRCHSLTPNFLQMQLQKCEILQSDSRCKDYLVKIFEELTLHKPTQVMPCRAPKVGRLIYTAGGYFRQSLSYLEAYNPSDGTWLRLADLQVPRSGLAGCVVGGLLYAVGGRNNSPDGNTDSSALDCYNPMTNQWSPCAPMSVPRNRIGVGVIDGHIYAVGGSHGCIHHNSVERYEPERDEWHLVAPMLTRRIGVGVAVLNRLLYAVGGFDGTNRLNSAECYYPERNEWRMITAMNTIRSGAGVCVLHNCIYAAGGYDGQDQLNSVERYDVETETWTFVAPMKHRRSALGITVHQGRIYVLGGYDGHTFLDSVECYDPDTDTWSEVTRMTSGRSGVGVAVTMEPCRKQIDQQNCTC

As usually defined, the EC50 is the concentration giving half of the maximal effect. The low end stands for greater potency, the high end for weaker potency. Molecule `CCCCCCN(Cc1cccc(-n2ncc(C(=O)O)c2[C@@H]2C[C@H]2c2cn(C)nn2)c1)S(=O)(=O)c1ccccc1C` (racemic) [Example 37, 1-(3-((N-hexyl-2-methylphenylsulfonamido)methyl)phenyl)-5-((trans)-2-(1-methyl-1H-1,2,3-triazol-4-yl)cyclo-propyl)-1H-pyrazole-4-carboxylic acid] showed a half-maximal effective concentration (EC50) of 0.1 to 1 µM.
In the case of `CC[C@@H]1CN(Cc2cc(-n3ncc(C(=O)O)c3C3C[C@H]3c3cn(C)nn3)ccc2C)S(=O)(=O)c2ccccc2O1` (stereo partly shown) [Example 25] it was 0.01 to 0.1 µM.
In the case of `Cn1cc([C@@H]2C[C@H]2c2c(C(=O)O)cnn2-c2cccc(CN3Cc4ccccc4OC(C)(C)C3)c2)nn1` (racemic) [Example 8] it was 0.1 to 1 µM.
In the case of `CCCCCCN(Cc1cccc(-n2ncc(C(=O)O)c2[C@@H]2C[C@H]2c2cnn(C)c2)c1)S(=O)(=O)c1ccccc1C` (racemic) [Example 56] it was 10 to 100 µM; in that of `CC[C@@H]1CN(Cc2cccc(-n3ncc(C(=O)O)c3[C@@H]3C[C@H]3c3cn(CC(F)(F)F)nn3)c2)S(=O)(=O)c2ccccc2O1` [Example 29], 0.01 to 0.1 µM; in that of `CCCCCCN(Cc1cccc(-n2ncc(C(=O)O)c2[C@@H]2C[C@H]2c2cn(C)nn2)c1)S(=O)(=O)c1cccc(-c2ccccc2)c1` (racemic) [Example 34, 1-(3-((N-hexyl-[1,1′-biphenyl]-3-ylsulfonamido)methyl)phenyl)-5-((trans)-2-(1-methyl-1H-1,2,3-triazol-4-yl)cyclopropyl)-1H-pyrazole-4-carboxylic acid], 0.01 to 0.1 µM.
Molecule `COc1ccccc1S(=O)(=O)N(Cc1cccc(-n2ncc(C(=O)O)c2[C@@H]2C[C@H]2c2cn(C)nn2)c1)C1CC1` (racemic) [Example 53, 1-(3-((N-cyclopropyl-2-methoxyphenylsulfonamido)methyl)phenyl)-5-((trans)-2-(1-methyl-1H-1,2,3-triazol-4-yl)cyclopropyl)-1H-pyrazole-4-carboxylic acid] gave an EC50 of 10 to 100 µM.
Under `CC[C@@H]1Cc2ccccc2CN(Cc2cccc(-n3ncc(C(=O)O)c3[C@@H]3C[C@H]3c3cn(C)nn3)c2)C1` [Example 10] stands 0.1 to 1 µM; under `CCCC[C@H]1Cc2ccc(C(F)(F)F)cc2S(=O)(=O)N(Cc2cccc(-n3ncc(C(=O)O)c3[C@@H]3C[C@H]3c3cn(C)nn3)c2)C1` [Example 21, 1-(3-(((S)-4-butyl-1,1-dioxido-8-(trifluoromethyl)-4,5-dihydrobenzo[f][1,2]thiazepin-2(3H)-yl)methyl)phenyl)-5-((1R,2R)-2-(1-methyl-1H-1,2,3-triazol-4-yl)cyclopropyl)-1H-pyrazole-4-carboxylic acid], below 0.01 µM; under `Cn1cc([C@@H]2C[C@H]2c2c(C(=O)O)cnn2-c2cccc(CN3Cc4ccccc4CC(C)(C)C3)c2)nn1` (racemic) [Example 7], 0.1 to 1 µM.
Under `CCCN(Cc1cccc(-n2ncc(C(=O)O)c2[C@@H]2C[C@H]2c2cn(C)nn2)c1)S(=O)(=O)c1ccccc1C` (racemic) [Example 50, 5-((trans)-2-(1-methyl-1H-1,2,3-triazol-4-yl)cyclopropyl)-1-(3-((2-methyl-N-propylphenylsulfonamido)methyl)phenyl)-1H-pyrazole-4-carboxylic acid] stands 1 to 10 µM.
Turning to `CN(Cc1cccc(-n2ncc(C(=O)O)c2[C@@H]2C[C@H]2c2cn(C)nn2)c1)S(=O)(=O)c1c(Cl)cccc1C(F)(F)F` (racemic) [Example 41, 1-(3-((2-chloro-N-methyl-6-(trifluoro-methyl)phenyl-sulfonamido)-methyl)phenyl)-5-((trans)-2-(1-methyl-1H-1,2,3-triazol-4-yl)cyclo-propyl)-1H-pyrazole-4-carboxylic acid], the EC50 is 1 to 10 µM.
In the case of `C[C@H]1Cc2cc(C(F)(F)F)ccc2S(=O)(=O)N(Cc2cccc(-n3ncc(C(=O)O)c3[C@@H]3C[C@H]3c3cnn(C)c3)c2)C1` [Example 30, 1-(3-(((S)-4-Methyl-1,1-dioxido-7-(trifluoromethyl)-4,5-dihydrobenzo[f][1,2]thiazepin-2(3H)-yl)methyl)phenyl)-5-(trans-2-(1-methyl-1H-pyrazol-4-yl)cyclopropyl)-1H-pyrazole-4-carboxylic acid] it was 0.1 to 1 µM.
Under `CC[C@H]1Cc2ccccc2S(=O)(=O)N(Cc2cccc(-n3ncc(C(=O)O)c3[C@@H]3C[C@H]3c3cn(C)nn3)c2)C1` [Example 4] stands 0.01 to 0.1 µM; under `COc1ccccc1S(=O)(=O)N(C)Cc1cccc(-n2ncc(C(=O)O)c2[C@@H]2C[C@H]2c2cn(C)nn2)c1` (racemic) [Example 47, 1-(3-((2-methoxy-N-methylphenylsulfonamido)methyl)phenyl)-5-((trans)-2-(1-methyl-1H-1,2,3-triazol-4-yl)cyclopropyl)-1H-pyrazole-4-carboxylic acid], 1 to 10 µM; under `CCOc1ccc(Br)cc1CN(C)Cc1cccc(-n2ncc(C(=O)O)c2[C@@H]2C[C@H]2c2cn(C)nn2)c1` (racemic) [Example 54, 1-(3-(((5-bromo-2-ethoxybenzyl)(methyl)amino)methyl)phenyl)-5-((trans)-2-(1-methyl-1H-1,2,3-triazol-4-yl)cyclopropyl)-1H-pyrazole-4-carboxylic acid trifluoroacetate], 1 to 10 µM.
In the case of `COc1ccccc1S(=O)(=O)N(C)C1CCc2ccc(-n3ncc(C(=O)O)c3[C@@H]3C[C@H]3c3cn(C)nn3)cc21` (stereo partly drawn) [Example 27, 1-(3-(2-methoxy-N-methylphenylsulfonamido)-2,3-dihydro-1H-inden-5-yl)-5-((1R,2R)-2-(1-methyl-1H-1,2,3-triazol-4-yl)cyclopropyl)-1H-pyrazole-4-carboxylic acid] it was 10 to 100 µM.
`Cc1cc([C@@H]2C[C@H]2c2c(C(=O)O)cnn2-c2cccc(CN3C[C@@H](C)Cc4cc(C(F)(F)F)ccc4S3(=O)=O)c2)on1` (racemic) [Example 57, 1-(3-(((S)-4-Methyl-1,1-dioxido-7-(trifluoromethyl)-4,5-dihydrobenzo[f][1,2]thiazepin-2(3H)-yl)methyl)phenyl)-5-(trans-2-(3-methylisoxazol-5-yl)cyclopropyl)-1H-pyrazole-4-carboxylic acid] returned an EC50 of 1 to 10 µM.
Turning to `CCOc1ccccc1S(=O)(=O)N(C)Cc1cccc(-n2ncc(C(=O)O)c2[C@@H]2C[C@H]2c2cn(C)nn2)c1` (racemic) [Example 45, 1-(3-((2-ethoxy-N-methylphenylsulfonamido)methyl)phenyl)-5-((trans)-2-(1-methyl-1H-1,2,3-triazol-4-yl)cyclopropyl)-1H-pyrazole-4-carboxylic acid], the EC50 was in the range of 1 to 10 µM.
In the case of `C[C@H]1Cc2ccc(C(F)(F)F)cc2S(=O)(=O)N(Cc2cccc(-n3ncc(C(=O)O)c3[C@@H]3C[C@H]3c3cn(C)nn3)c2)C1` (racemic) [Example 16, 1-(3-((4-methyl-1,1-dioxido-8-(trifluoromethyl)-4,5-dihydro-benzo[f][1,2]thiazepin-2(3H)-yl)methyl)phenyl)-5-((trans)-2-(1-methyl-1H-1,2,3-triazol-4-yl)cyclopropyl)-1H-pyrazole-4-carboxylic acid] it was 0.01 to 0.1 µM.
Under `CC[C@@H]1CN(Cc2cccc(-n3ncc(C(=O)O)c3[C@@H]3C[C@H]3c3cn(C)nn3)c2)Cc2ccccc2O1` (racemic) [Example 14] stands 1 to 10 µM; under `Cn1cc([C@@H]2C[C@H]2c2c(C(=O)O)cnn2-c2cccc(Cn3ccnc3CN3CCCCC3)c2)nn1` (racemic) [Example 24], 0.1 to 1 µM.
